Source: EPA's ToxValDB 9.5 (doi:10.2903/j.efsa.2016.4605)

Experiments:
[1] = system: Hypoaspis aculeifer; details: chronic/long-term; reproduction
[2] = system: Oncorhynchus mykiss; details: for LC50: acute, mortality; for NOEC: chronic/long-term
[3] = system: Tagia sp.; details: chronic/long-term; reproduction
[4] = system: Mus musculus; details: chronic; histopathology: neoplastic
[5] = system: Daphnia magna; details: chronic/long-term
[6] = system: Folsomia candida; details: chronic/long-term; reproduction
[7] = system: Rattus norvegicus; details: for LD50: acute, oral, mortality
[8] = system: Typhlodromus pyri; experiment: LR50; higher = less toxic; details: not reported; mortality
[9] = system: Coturnix japonica
[10] = system: Apis mellifera; details: acute, mortality
[11] = duration: 21 days, reproduction

CC1CNC(=O)N1 (centres undefined) [4-Methyl-2-imidazolidinone]
NOEC [1]: ≥ 100 mg/kg
LC50 ([2]; duration: 96 hours): > 100 µg/mL
NOEC ([2]; duration: 63 days, growth): 2 mg/L
NOEC [3]: ≥ 1000 mg/kg
NOAEL [4]: 8 mg/kg-day
NOEC [5, 11]: 100 mg/L
NOEC [6]: 90 mg/kg

CC1CNC(=S)N1 (centres undefined) [4-Methylimidazolidine-2-thione]
NOEC [1]: ≥ 100 mg/kg
LC50 [2]: > 100 µg/mL
NOEC ([2]; duration: 28 days, growth): 102 mg/L
NOEC [3]: 178 mg/kg
NOAEL [4]: 0.16 mg/kg-day
LD50 [7]: 795 mg/kg-day
NOEC [5, 11]: 3.2 mg/L
NOEC [6]: 9 mg/kg

CC1CN2C(=S)SSC2=N1 (centres undefined) [6-Methyl-5,6-dihydroimidazo[2,1-C][1,2,4]dithiazole-3-thione]
NOAEL ([7]; short-term, duration: 28 days, neurology): 0.466 mg/kg-day

CC(CNC(=S)[S-])NC(=S)[S-].[Zn+2] (centres undefined) [Propineb]
LR50 [8]: 5.6 g/ha
NOEC [1]: 39.1 mg/kg
LC50 ([2]; duration: 96 hours): 0.329 µg/mL
NOEC ([2]; duration: 28 days, other): > 0.6 mg/L
NOEC ([2]; growth): 0.0823 mg/L
LD50 ([9]; acute, oral, mortality): > 5000 mg/kg-day
NOAEL ([9]; chronic): 64.7 mg/kg-day
NOEC [3]: 38.7 mg/kg
LD50 ([10]; dermal): > 100 µg/piece
LD50 ([10]; oral, unspecified): > 100 µg/piece
LD50 [7]: > 2000 mg/kg-day
NOAEL ([7]; chronic, M, organ weight): 2.5 mg/kg-day
NOAEL ([7]; developmental, development): 3 mg/kg-day
NOAEL ([7]; reproduction developmental, body weight): 3 mg/kg-day
NOAEL ([7]; subchronic, F, body weight): 9.36 mg/kg-day
NOEC [5, 11]: 0.015 mg/L
NOEC ([5]; duration: 35 days, other): 0.48 mg/L
NOEC [6]: 39.1 mg/kg
